Biological target: T1, GLP (Homo sapiens, UniProt Q9H9B1)
T1 construct: His6 (N); made in house; host or cells: E. coli BL21 (DE3)pLysS-rosetta
T1 sequence (Q9H9B1 1-1298): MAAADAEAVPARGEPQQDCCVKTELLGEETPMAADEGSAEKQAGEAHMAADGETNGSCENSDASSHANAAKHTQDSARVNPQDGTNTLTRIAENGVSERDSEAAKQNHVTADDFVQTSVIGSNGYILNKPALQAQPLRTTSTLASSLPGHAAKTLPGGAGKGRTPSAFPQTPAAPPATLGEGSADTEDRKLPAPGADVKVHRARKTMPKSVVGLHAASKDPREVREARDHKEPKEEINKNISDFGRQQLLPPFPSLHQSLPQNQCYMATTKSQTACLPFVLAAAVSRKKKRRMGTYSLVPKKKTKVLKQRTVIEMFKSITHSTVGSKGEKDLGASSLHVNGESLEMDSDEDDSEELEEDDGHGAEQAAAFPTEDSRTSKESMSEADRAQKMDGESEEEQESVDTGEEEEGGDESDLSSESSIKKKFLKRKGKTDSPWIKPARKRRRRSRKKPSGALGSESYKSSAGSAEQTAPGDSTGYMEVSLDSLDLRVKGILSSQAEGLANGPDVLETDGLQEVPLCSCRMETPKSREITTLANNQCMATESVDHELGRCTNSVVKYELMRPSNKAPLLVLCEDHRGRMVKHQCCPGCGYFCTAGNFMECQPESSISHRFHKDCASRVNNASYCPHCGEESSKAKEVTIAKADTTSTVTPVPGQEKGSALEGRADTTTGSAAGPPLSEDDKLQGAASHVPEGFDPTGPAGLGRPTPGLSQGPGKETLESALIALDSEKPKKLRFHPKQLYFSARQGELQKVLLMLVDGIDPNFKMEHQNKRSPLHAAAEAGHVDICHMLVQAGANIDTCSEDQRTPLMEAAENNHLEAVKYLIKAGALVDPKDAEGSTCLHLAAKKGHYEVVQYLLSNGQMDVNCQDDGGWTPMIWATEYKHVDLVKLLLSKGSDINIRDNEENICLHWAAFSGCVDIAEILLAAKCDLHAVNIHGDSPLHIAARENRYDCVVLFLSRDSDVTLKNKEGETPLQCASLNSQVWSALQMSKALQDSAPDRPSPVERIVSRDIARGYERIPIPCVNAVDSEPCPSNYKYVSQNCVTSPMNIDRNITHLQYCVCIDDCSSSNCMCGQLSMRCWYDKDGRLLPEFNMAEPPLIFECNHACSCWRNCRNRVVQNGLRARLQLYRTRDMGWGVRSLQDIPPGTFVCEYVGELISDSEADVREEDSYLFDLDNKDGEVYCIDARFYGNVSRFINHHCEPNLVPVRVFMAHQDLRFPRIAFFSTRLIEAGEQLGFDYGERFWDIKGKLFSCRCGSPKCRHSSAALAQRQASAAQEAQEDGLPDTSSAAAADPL
Assay: NMR assay of GLP-catalyzed methylation of H3K9 peptides
Format: biochemical
Conditions: peptide 400 µM, GLP 8 µM, SAM 2 mM, 50 mM Tris-d11.HCl pD 8.0, 1 h, 37 °C

GLP-catalyzed methylation by 1H NMR / 1H-13C HSQC, result in words: not methylated
Substance: ARTKQTAR(Kba9)STGGKA [H3Kba9]
